Source: patent publication US20170355705A1 (GlaxoSmithKline Intellectual Property (No.2) Limited, priority 2014, published 2017)
Where a name gives a salt, the structure may show the parent alone.

Target: T1, SIRT1 (Homo sapiens, UniProt Q96EB6)
T1 sequence (Q96EB6 1-747): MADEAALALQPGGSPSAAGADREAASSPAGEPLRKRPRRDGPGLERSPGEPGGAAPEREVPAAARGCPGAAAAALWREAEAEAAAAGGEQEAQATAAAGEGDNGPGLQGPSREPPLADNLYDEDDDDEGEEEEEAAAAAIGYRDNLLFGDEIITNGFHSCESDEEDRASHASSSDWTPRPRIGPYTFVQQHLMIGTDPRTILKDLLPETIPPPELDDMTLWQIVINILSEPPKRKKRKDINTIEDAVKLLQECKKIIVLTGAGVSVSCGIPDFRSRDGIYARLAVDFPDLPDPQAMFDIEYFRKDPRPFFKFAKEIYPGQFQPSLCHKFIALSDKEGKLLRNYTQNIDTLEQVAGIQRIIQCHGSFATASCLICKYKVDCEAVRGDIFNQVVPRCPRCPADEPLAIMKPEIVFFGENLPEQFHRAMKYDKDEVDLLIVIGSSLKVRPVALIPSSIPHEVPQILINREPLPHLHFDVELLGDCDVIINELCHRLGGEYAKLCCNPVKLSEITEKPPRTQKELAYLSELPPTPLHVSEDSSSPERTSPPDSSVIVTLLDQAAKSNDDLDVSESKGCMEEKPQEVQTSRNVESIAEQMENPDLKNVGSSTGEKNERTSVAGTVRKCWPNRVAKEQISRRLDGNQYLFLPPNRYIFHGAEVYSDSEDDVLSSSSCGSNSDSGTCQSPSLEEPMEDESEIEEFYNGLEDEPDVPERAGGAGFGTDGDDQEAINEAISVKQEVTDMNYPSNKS
Test: Trp mass spectrometry assay of SIRT1 activity (EC1.5, percent maximum activation)
Format: biochemical
Conditions: Trp mass spectrometry assay; for TRP Activity (EC1.5): EC1.5 = concentration giving 150% activation of SIRT1
In short: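 N-terminal His-tagged human SIRT1, expressed in BL21(DE3) and purified, was incubated 25 min with an acetylated Trp peptide and NAD plus test compound at varying concentrations, then quenched with formic acid. OAADPR or deacetylated peptide was quantified by mass spectrometry versus compound-free control; EC1.5 is the concentration giving 50% activity increase, with percent maximum activation.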

[1] = percent maximum activation of SIRT1
[2] = 0.5 μM peptide substrate, 120 μM βNAD+, 10 nM SIRT1, 25 minutes at 25° C.

Structure (SMILES)	TRP Activity (EC1.5)	TRP MAX RESP (percent maximum fold activation) [1]	TRP Activity (EC1.5, concentration of test compound that results in 150% activation of SIRT1) [2]	TRP MAX RESP (percent maximum fold activation) [2]
O=C(NC1CC1)N1c2nc(-c3cccc(C(F)(F)F)c3)c(Cl)cc2N2CC[C@H]1C2 [Example 52, (4S)-8-chloro-N-cyclopropyl-7-(3-(trifluoromethyl)phenyl)-3,4-dihydro-1,4-methanopyrido[2,3-b][1,4]diazepine-5(2H)-carboxamide]	A (EC1.5<1 μM)	A (Fold activation ≧150%)	–	–
Cc1cc(-c2ccc3c(n2)N(C(=O)Nc2ccc4c(c2)OCO4)[C@H]2CCN3C2)ccn1 [Example 195, (4S)-N-(benzo[d][1,3]dioxol-5-yl)-7-(2-methylpyridin-4-yl)-3,4-dihydro-1,4-methanopyrido[2,3-b][1,4]diazepine-5(2H)-carboxamide]	A (EC1.5<1 μM)	A (Fold activation ≧150%)	–	–
O=C(Nc1cc(OC[C@H](O)CO)ncn1)N1c2nc(-c3cccc(C(F)(F)F)c3)c(Cl)cc2N2CC[C@H]1C2 [Example 24, (4S)-8-chloro-N-(6-((R)-2,3-dihydroxypropoxy)pyrimidin-4-yl)-7-(3-(trifluoromethyl)phenyl)-3,4-dihydro-1,4-methanopyrido[2,3-b][1,4]diazepine-5(2H)-carboxamide]	B (EC1.5 1-25 μM)	A (Fold activation ≧150%)	–	–
Cn1cc(-c2nc3c(cc2Cl)N2CC[C@@H](C2)N3C(=O)Nc2ccnc(OC[C@H](O)CO)c2)cn1 [Example 106, (4S)-8-chloro-N-(2-((R)-2,3-dihydroxypropoxy)pyridin-4-yl)-7-(1-methyl-1H-pyrazol-4-yl)-3,4-dihydro-1,4-methanopyrido[2,3-b][1,4]diazepine-5(2H)-carboxamide]	B (EC1.5 1-25 μM)	A (Fold activation ≧150%)	–	–
CCn1cc(-c2nc3c(cc2Cl)N2CC[C@@H](C2)N3C(=O)Nc2ccnc(OC[C@H](O)CO)c2)cn1 [Example 90, (4S)-8-chloro-N-(2-((R)-2,3-dihydroxypropoxy)pyridin-4-yl)-7-(1-ethyl-1H-pyrazol-4-yl)-3,4-dihydro-1,4-methanopyrido[2,3-b][1,4]diazepine-5(2H)-carboxamide]	B (EC1.5 1-25 μM)	A (Fold activation ≧150%)	–	–
CCc1cnc(NC(=O)N2c3nc(-c4ccnc(C)c4)ccc3N3CC[C@H]2C3)cn1 [Example 161, (4S)-N-(5-ethylpyrazin-2-yl)-7-(2-methylpyridin-4-yl)-3,4-dihydro-1,4-methanopyrido[2,3-b][1,4]diazepine-5(2H)-carboxamide]	A (EC1.5<1 μM)	A (Fold activation ≧150%)	–	–
Cc1cc(-c2ccc3c(n2)N(C(=O)Nc2cncc(F)n2)[C@H]2CCN3C2)ccn1 [Example 190, (4S)-N-(6-fluoropyrazin-2-yl)-7-(2-methylpyridin-4-yl)-3,4-dihydro-1,4-methanopyrido[2,3-b][1,4]diazepine-5(2H)-carboxamide]	A (EC1.5<1 μM)	A (Fold activation ≧150%)	–	–
COC(=O)c1cc(-c2ccc3c(n2)N(C(=O)Nc2cnccn2)[C@H]2CCN3C2)ccn1 [Example 215, methyl 4-((4S)-5-(pyrazin-2-ylcarbamoyl)-2,3,4,5-tetrahydro-1,4-methanopyrido[2,3-b][1,4]diazepin-7-yl)picolinate]	–	–	B (EC1.5 1-25 μM)	A (Fold activation ≧150%)
Cc1cc(-c2ccc3c(n2)N(C(=O)Nc2cc(CCC(O)CO)ccn2)[C@H]2CCN3C2)ccn1 (single isomer, unassigned) [Example 359]	–	–	B (EC1.5 1-25 μM)	A (Fold activation ≧150%)

The next lines start with the values.

TRP Activity (EC1.5)	TRP MAX RESP (percent maximum fold activation) [1]	TRP Activity (EC1.5, concentration of test compound that results in 150% activation of SIRT1) [2]	TRP MAX RESP (percent maximum fold activation) [2]	Structure (SMILES)
B (EC1.5 1-25 μM)	A (Fold activation ≧150%)	–	–	Cc1cc(-c2nc3c(cc2F)N2CC[C@@H](C2)N3C(=O)Nc2cccnc2)ccn1 [Example 14, (4S)-8-fluoro-7-(2-methylpyridin-4-yl)-N-(pyridin-3-yl)-3,4-dihydro-1,4-methanopyrido[2,3-b][1,4]diazepine-5(2H)-carboxamide]
B (EC1.5 1-25 μM)	A (Fold activation ≧150%)	–	–	Cc1cc(-c2nc3c(cc2Cl)N2CC[C@@H](C2)N3C(=O)Nc2cc(OC[C@@H](O)CO)ccn2)ccn1 [Example 27, (4S)-8-chloro-N-(4-((S)-2,3-dihydroxypropoxy)pyridin-2-yl)-7-(2-methylpyridin-4-yl)-3,4-dihydro-1,4-methanopyrido[2,3-b][1,4]diazepine-5(2H)-carboxamide]
C (EC1.5>25 μM)	A (Fold activation ≧150%)	–	–	Cc1cc(-c2ccc3c(n2)N(C(=O)Nc2cncnc2)[C@H]2CCN3C2)ccn1 [Example 163, (4S)-7-(2-methylpyridin-4-yl)-N-(pyrimidin-5-yl)-3,4-dihydro-1,4-methanopyrido[2,3-b][1,4]diazepine-5(2H)-carboxamide]
B (EC1.5 1-25 μM)	A (Fold activation ≧150%)	–	–	CCOc1cc(-c2ccc3c(n2)N(C(=O)Nc2cnccn2)[C@H]2CCN3C2)ccn1 [Example 140, (4S)-7-(2-ethoxypyridin-4-yl)-N-(pyrazin-2-yl)-3,4-dihydro-1,4-methanopyrido[2,3-b][1,4]diazepine-5(2H)-carboxamide]
B (EC1.5 1-25 μM)	A (Fold activation ≧150%)	–	–	O=C(Nc1cnccn1)N1c2nc(-c3ccc(C4CC4)nc3)ccc2N2CC[C@H]1C2 [Example 180, (4S)-7-(6-cyclopropylpyridin-3-yl)-N-(pyrazin-2-yl)-3,4-dihydro-1,4-methanopyrido[2,3-b][1,4]diazepine-5(2H)-carboxamide]
B (EC1.5 1-25 μM)	A (Fold activation ≧150%)	–	–	O=C(Nc1cc(OC[C@H](O)CO)ccn1)N1c2nc(-c3cccc(C(F)(F)F)c3)c(Cl)cc2N2CC[C@H]1C2 [Example 32, (4S)-8-chloro-N-(4-((R)-2,3-dihydroxypropoxy)pyridin-2-yl)-7-(3-(trifluoromethyl)phenyl)-3,4-dihydro-1,4-methanopyrido[2,3-b][1,4]diazepine-5(2H)-carboxamide, Hydrochloride]
–	–	B (EC1.5 1-25 μM)	A (Fold activation ≧150%)	CC(C)(CO)COc1nccc(NC(=O)N2c3nc(-c4cccc(C(F)(F)F)c4)ccc3N3CC[C@H]2C3)n1 [Example 321, (4S)-N-(2-(3-hydroxy-2,2-dimethylpropoxy)pyrimidin-4-yl)-7-(3-(trifluoromethyl)phenyl)-3,4-dihydro-1,4-methanopyrido[2,3-b][1,4]diazepine-5(2H)-carboxamide]
B (EC1.5 1-25 μM)	A (Fold activation ≧150%)	–	–	Cc1cc(-c2ccc3c(n2)N(C(=O)Nc2ccn(C)n2)[C@H]2CCN3C2)ccn1 [Example 182, (4S)-N-(1-methyl-1H-pyrazol-3-yl)-7-(2-methylpyridin-4-yl)-3,4-dihydro-1,4-methanopyrido[2,3-b][1,4]diazepine-5(2H)-carboxamide]
